Measurements from PubChem BioAssay (NCI).
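A five-concentration, 48-hour dose response in 96-well plates underlies each endpoint, interpolated linearly between surrounding concentrations. At the TGI there is no net growth.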

Experiments:
Assay in all cases: DTP human tumour cell line panel, 48 h
OVCAR-8 ovarian = system: OVCAR-8 ovarian
CAKI-1 renal = system: CAKI-1 renal
SK-MEL-28 melanoma = system: SK-MEL-28 melanoma
MALME-3M melanoma = system: MALME-3M melanoma
UACC-62 melanoma = system: UACC-62 melanoma
LOX IMVI melanoma = system: LOX IMVI melanoma
M14 melanoma = system: M14 melanoma
HOP-62 NSCLC = system: HOP-62 NSCLC
MDA-N = system: MDA-N
PC-3 prostate = system: PC-3 prostate
A498 renal = system: A498 renal
DU-145 prostate = system: DU-145 prostate
SW-620 colon = system: SW-620 colon
SN12C renal = system: SN12C renal
BT-549 breast = system: BT-549 breast
SK-OV-3 ovarian = system: SK-OV-3 ovarian
NCI-H23 lung = system: NCI-H23 lung
SK-MEL-5 melanoma = system: SK-MEL-5 melanoma
HL-60(TB) leukemia = system: HL-60(TB) leukemia
OVCAR-4 ovarian = system: OVCAR-4 ovarian
MDA-MB-435 = system: MDA-MB-435
UO-31 renal = system: UO-31 renal
NCI-H226 lung = system: NCI-H226 lung
COLO 205 colon = system: COLO 205 colon
OVCAR-5 ovarian = system: OVCAR-5 ovarian
RPMI-8226 leukemia = system: RPMI-8226 leukemia
OVCAR-3 ovarian = system: OVCAR-3 ovarian
EKVX NSCLC = system: EKVX NSCLC
HCT-116 colon = system: HCT-116 colon
SNB-19 CNS = system: SNB-19 CNS
HCC-2998 colon = system: HCC-2998 colon
SF-539 CNS = system: SF-539 CNS
MCF7 breast = system: MCF7 breast
U251 CNS = system: U251 CNS
MOLT-4 leukemia = system: MOLT-4 leukemia
T-47D breast = system: T-47D breast
UACC-257 melanoma = system: UACC-257 melanoma
NCI-H460 lung = system: NCI-H460 lung
TK-10 renal = system: TK-10 renal
NCI-H522 lung = system: NCI-H522 lung
NCI/ADR-RES ovarian = system: NCI/ADR-RES ovarian
KM12 colon = system: KM12 colon
IGROV1 ovarian = system: IGROV1 ovarian
ACHN renal = system: ACHN renal
A549 NSCLC = system: A549 NSCLC
CCRF-CEM leukemia = system: CCRF-CEM leukemia
SF-268 CNS = system: SF-268 CNS
HCT-15 colon = system: HCT-15 colon
SK-MEL-2 melanoma = system: SK-MEL-2 melanoma
MDA-MB-231 breast = system: MDA-MB-231 breast
SF-295 CNS = system: SF-295 CNS
HOP-92 NSCLC = system: HOP-92 NSCLC
SR leukemia = system: SR leukemia
786-0 renal = system: 786-0 renal
HT29 colon = system: HT29 colon
K-562 leukemia = system: K-562 leukemia
HS 578T breast = system: HS 578T breast
RXF 393 renal = system: RXF 393 renal
SNB-75 CNS = system: SNB-75 CNS

SMILES: Cc1n[nH]c(=O)n1/N=C/c1cccnc1
- TGI (OVCAR-8 ovarian): > 100 µM
- TGI (CAKI-1 renal): > 100 µM
- TGI (SK-MEL-28 melanoma): > 100 µM
- TGI (MALME-3M melanoma): > 100 µM
- TGI (UACC-62 melanoma): > 100 µM
- TGI (LOX IMVI melanoma): > 100 µM
- TGI (M14 melanoma): > 100 µM
- TGI (HOP-62 NSCLC): > 100 µM
- TGI (MDA-N): > 100 µM
- TGI (PC-3 prostate): > 100 µM
- TGI (A498 renal): > 100 µM
- TGI (DU-145 prostate): > 100 µM
- TGI (SW-620 colon): > 100 µM
- TGI (SN12C renal): > 100 µM
- TGI (BT-549 breast): > 100 µM
- TGI (SK-OV-3 ovarian): > 100 µM
- TGI (NCI-H23 lung): > 100 µM
- TGI (SK-MEL-5 melanoma): > 100 µM
- TGI (HL-60(TB) leukemia): > 100 µM
- TGI (OVCAR-4 ovarian): > 100 µM
- TGI (MDA-MB-435): > 100 µM
- TGI (UO-31 renal): > 100 µM
- TGI (NCI-H226 lung): > 100 µM
- TGI (COLO 205 colon): > 100 µM
- TGI (OVCAR-5 ovarian): > 100 µM
- TGI (RPMI-8226 leukemia): > 100 µM
- TGI (OVCAR-3 ovarian): > 100 µM
- TGI (EKVX NSCLC): > 100 µM
- TGI (HCT-116 colon): > 100 µM
- TGI (SNB-19 CNS): > 100 µM
- TGI (HCC-2998 colon): > 100 µM
- TGI (SF-539 CNS): > 100 µM
- TGI (MCF7 breast): > 100 µM
- TGI (U251 CNS): > 100 µM
- TGI (MOLT-4 leukemia): > 100 µM
- TGI (T-47D breast): > 100 µM
- TGI (UACC-257 melanoma): > 100 µM
- TGI (NCI-H460 lung): > 100 µM
- TGI (TK-10 renal): > 100 µM
- TGI (NCI-H522 lung): > 100 µM
- TGI (NCI/ADR-RES ovarian): > 100 µM
- TGI (KM12 colon): > 100 µM
- TGI (IGROV1 ovarian): > 100 µM
- TGI (ACHN renal): > 100 µM
- TGI (A549 NSCLC): > 100 µM
- TGI (CCRF-CEM leukemia): > 100 µM
- TGI (SF-268 CNS): > 100 µM
- TGI (HCT-15 colon): > 100 µM
- TGI (SK-MEL-2 melanoma): > 100 µM
- TGI (MDA-MB-231 breast): > 100 µM
- TGI (SF-295 CNS): > 100 µM
- TGI (HOP-92 NSCLC): > 100 µM
- TGI (SR leukemia): > 100 µM
- TGI (786-0 renal): > 100 µM
- TGI (HT29 colon): > 100 µM
- TGI (K-562 leukemia): > 100 µM
- TGI (HS 578T breast): > 100 µM

SMILES: CC(C)C(Cl)CC/C(CBr)=C(\Cl)CCl (centres undefined)
- TGI (OVCAR-8 ovarian): 4.65 µM
- TGI (CAKI-1 renal): 17.9 µM
- TGI (SK-MEL-28 melanoma): 12 µM
- TGI (MALME-3M melanoma): 19.6 µM
- TGI (UACC-62 melanoma): 6.16 µM
- TGI (LOX IMVI melanoma): 1.2 µM
- TGI (M14 melanoma): 4.06 µM
- TGI (HOP-62 NSCLC): 31.1 µM
- TGI (MDA-N): 5.63 µM
- TGI (PC-3 prostate): 23.9 µM
- TGI (A498 renal): 35.7 µM
- TGI (DU-145 prostate): 26.3 µM
- TGI (SW-620 colon): 4.26 µM
- TGI (SN12C renal): 10.2 µM
- TGI (BT-549 breast): 3.99 µM
- TGI (SK-OV-3 ovarian): 17.8 µM
- TGI (NCI-H23 lung): 8.65 µM
- TGI (SK-MEL-5 melanoma): 5.95 µM
- TGI (HL-60(TB) leukemia): 2.24 µM
- TGI (OVCAR-4 ovarian): 7.34 µM
- TGI (MDA-MB-435): 10 µM
- TGI (UO-31 renal): 30.8 µM
- TGI (NCI-H226 lung): 22.2 µM
- TGI (COLO 205 colon): 12.8 µM
- TGI (OVCAR-5 ovarian): 31.2 µM
- TGI (RPMI-8226 leukemia): 5 µM
- TGI (OVCAR-3 ovarian): 10.4 µM
- TGI (RXF 393 renal): 11.3 µM
- TGI (SNB-75 CNS): 17 µM
- TGI (EKVX NSCLC): 34 µM
- TGI (HCT-116 colon): 8.35 µM
- TGI (SNB-19 CNS): 28.3 µM
- TGI (HCC-2998 colon): 26.7 µM
- TGI (SF-539 CNS): 29.5 µM
- TGI (MCF7 breast): 1.29 µM
- TGI (U251 CNS): 23.1 µM
- TGI (MOLT-4 leukemia): > 20.3 µM
- TGI (T-47D breast): 3.29 µM
- TGI (UACC-257 melanoma): 11 µM
- TGI (NCI-H460 lung): 29.3 µM
- TGI (TK-10 renal): 28 µM
- TGI (NCI-H522 lung): 2.49 µM
- TGI (NCI/ADR-RES ovarian): > 79.1 µM
- TGI (KM12 colon): 16.4 µM
- TGI (IGROV1 ovarian): 4.09 µM
- TGI (ACHN renal): 29.6 µM
- TGI (A549 NSCLC): 36.1 µM
- TGI (SF-268 CNS): 32.1 µM
- TGI (HCT-15 colon): 10.4 µM
- TGI (SK-MEL-2 melanoma): 5.64 µM
- TGI (MDA-MB-231 breast): 8.36 µM
- TGI (SF-295 CNS): 30.6 µM
- TGI (HOP-92 NSCLC): 7.73 µM
- TGI (786-0 renal): 5.04 µM
- TGI (HT29 colon): 11.7 µM
- TGI (K-562 leukemia): 3.69 µM
- TGI (HS 578T breast): 11.8 µM
